# From patent US11040031B2, “Pyrazole derivatives as MALT1 inhibitors” (Janssen Pharmaceutica NV, priority 2018, dated 2021)
# Read-outs that look alike come from different tables or passages of the source.
# Assays:
# [1] = system: Secretion of IL10 by TMD8 ABC-DLBCL cells; experiment: Human IL10 Mesoscale assay (TMD-8); type: cell-based; settings: read-out: Human IL10 Mesoscale assay (TMD-8)
# Protocol: (§1) NFKB signaling regulates the secretion of multiple cytokines, including IL6 and IL10. Secretion of the cytokines IL6 and IL10 by TMD8 or OCI-LY3 ABC-DLBCL cells was measured using a mesoscale assay.
# (§2) Cell passage number should not exceed 30. Cells should be kept between 0.5-2.5 million cells per mL during culturing and cells should be supplemented every 2-3 days with fresh 50 µM beta-mercaptoenthanol. No beta-mercaptoethanol was used during the mesoscale assay.
# (§3) DMSO control wells were used to determine the maximum signal (High Control (HC)). […] Compounds and cells were incubated for 24 h at 37° C. and 5% CO2 (assay volume is 150 μL). After 24 h of incubation 50 μL of the supernatant was transferred to a MSD plate (V-Plex Proinflammation Panel 1 (human) kit, Mesoscale (MSD)) and incubated for 2 h with vigorous shaking (600 rpm) at room temperature. Following incubation, plates were washed 3× with PBS+0.05% Tween-20 and 25 μL detection antibody solution (IL6 & IL10 antibodies in diluent 3 (MSD)) was added per well followed by 2 h of incubation with vigorous shaking (600 rpm) at room temperature. After 3× washes with PBS+0.05% Tween-20, plates were incubated with 150 μL 2× Read Buffer T and read on SECTOR imager.
# [2] = system: OCI-Ly3 ABC-DLBCL cell line; experiment: 4-day proliferation assay OCI-Ly3; type: cell-based; settings: Homo sapiens, read-out: Anti-proliferation: OCI-LY-3 IC50
# Protocol: To assess anti-proliferative effects, MALT1 inhibitor test compounds were tested in 4-day proliferation assays using three different DLBCL cell lines.
# Cells should be kept between 0.5-2.5 million cells per mL during culturing and cells should be supplemented every 2-3 days with fresh 50 μM beta-mercaptoenthanol. No beta-mercaptoethanol is used during the proliferation assay. OCI-Ly7 cells were propagated in IMDM (ThermoFisher) supplemented with 10% fetal bovine serum (HyClone), 2 mM L-glutamine (Sigma Aldrich) and 50 μg/mL Gentamycin. Cell passage numbers should not exceed 30.
# 10,000 TMD8, 10,000 OCI-Ly3 or 2,000 OCI-Ly7 cells were seeded in 100 μL media per well and incubated for 4 days at 37° C. and 5% CO2. Cell plating numbers were chosen based on growth curves to ensure linear cell growth. After 4 days of incubation 50 μl CellTiterGLO reagent (Promega) were added to each well and luminescence was measured on the Envision after 10 min of incubation at room temperature.
# [3] = system: Secretion of IL6 by TMD8 ABC-DLBCL cells; experiment: Human IL6 Mesoscale assay (TMD-8); type: cell-based; settings: read-out: Human IL6 Mesoscale assay (TMD-8)
# Protocol: as §1, §2, §3
# [4] = target: T1, full-length MALT1 protein (Strep-MALT1(1-824)-His) (Homo sapiens, UniProt Q9UDY8); experiment: biochemical;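 note: fluorogenic LRSR-AMC substrate cleavage by MALT1, 50 min compound preincubation then 4 h reaction at RT, 11-point dilution from 30 µM, scaled between enzyme-free and untreated enzyme controls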
# T1 sequence (Q9UDY8 1-824): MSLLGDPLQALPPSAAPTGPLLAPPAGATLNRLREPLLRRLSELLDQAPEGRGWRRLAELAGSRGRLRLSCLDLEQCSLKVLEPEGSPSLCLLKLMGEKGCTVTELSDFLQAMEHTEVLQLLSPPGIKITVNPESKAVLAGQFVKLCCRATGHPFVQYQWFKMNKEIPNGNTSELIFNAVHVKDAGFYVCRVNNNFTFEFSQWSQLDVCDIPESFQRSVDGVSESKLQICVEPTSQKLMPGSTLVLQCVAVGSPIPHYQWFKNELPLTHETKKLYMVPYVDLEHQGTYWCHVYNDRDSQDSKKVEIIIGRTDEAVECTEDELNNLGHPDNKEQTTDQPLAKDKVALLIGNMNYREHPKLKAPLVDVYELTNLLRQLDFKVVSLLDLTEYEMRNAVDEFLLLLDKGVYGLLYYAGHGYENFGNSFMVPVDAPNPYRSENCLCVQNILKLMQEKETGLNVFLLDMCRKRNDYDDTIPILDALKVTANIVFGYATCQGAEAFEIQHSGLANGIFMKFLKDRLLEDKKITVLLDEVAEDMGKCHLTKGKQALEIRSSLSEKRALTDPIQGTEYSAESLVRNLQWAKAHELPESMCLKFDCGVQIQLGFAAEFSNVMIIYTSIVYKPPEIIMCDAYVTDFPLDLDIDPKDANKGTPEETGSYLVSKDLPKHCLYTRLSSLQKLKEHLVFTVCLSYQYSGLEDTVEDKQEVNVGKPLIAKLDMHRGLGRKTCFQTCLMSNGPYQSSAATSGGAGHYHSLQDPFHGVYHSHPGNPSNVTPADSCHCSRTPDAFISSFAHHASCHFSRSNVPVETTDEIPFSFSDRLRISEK
# [5] = system: Secretion of IL10 by OCI-LY3 ABC-DLBCL cells; experiment: Human IL10 Mesoscale assay (OCI-LY3); type: cell-based; settings: OCI-LY3 cells, 24 h incubation, supernatant, MSD V-Plex, read-out: Human IL10 Mesoscale assay (OCI-LY3)
# In short: (§4)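 TMD8 or OCI-LY3 ABC-DLBCL cells incubated with compound 24 h at 37° C without beta-mercaptoethanol. Secreted IL6 and IL10 in supernatant quantified by MSD electrochemiluminescence immunoassay; DMSO wells define maximum signal.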
# [6] = system: Secretion of IL6 by OCI-LY3 ABC-DLBCL cells; experiment: Human IL6 Mesoscale assay (OCI-LY3); type: cell-based; settings: OCI-LY3 cells, 24 h incubation, supernatant, MSD V-Plex, read-out: Human IL6 Mesoscale assay (OCI-LY3)
# In short: as §4
# [7] = TMD8 cells, 24 h incubation, supernatant, MSD V-Plex
# [8] = 96 h, 10,000 OCI-Ly3 cells per well, 4 days, CellTiterGLO
SMILES,"IC50 [1, 7] [nM]","IC50 [2, 8] [nM]","IC50 [3, 7] [nM]",IC50 [4] [nM],"IC50 ([1]; TMD8, 24 h) [nM]","IC50 ([2]; OCI-Ly3, 96 h) [nM]","IC50 ([3]; TMD8, 24 h) [nM]",IC50 [5] [nM],IC50 [6] [nM]
"Cc1cc(Cl)ccc1-n1ncc(C(=O)Nc2cnc(-n3nccn3)c(Cl)c2)c1C(F)(F)F [Cpd 2, 1-(4-Chloro-2-methylphenyl)-N-(5-chloro-6-(2H-1,2,3-triazol-2-yl)pyridin-3-yl)-5-(trifluoromethyl)-1H-pyrazole-4-carboxamide]",65,741,148,132,,,,,
"COc1ncccc1-n1ncc(C(=O)Nc2cnc(-n3nccn3)c(Cl)c2)c1C(F)(F)F [Cpd 14, N-(5-Chloro-6-(2H-1,2,3-triazol-2-yl)pyridin-3-yl)-1-(2-methoxypyridin-3-yl)-5-(trifluoromethyl)-1H-pyrazole-4-carboxamide]",282,2140,316,148,,,,,
"Cc1ccnc(-n2ncc(C(=O)Nc3cnc(-n4nccn4)c(Cl)c3)c2C(F)(F)F)c1 [Cpd 22, N-(5-chloro-6-(2H-1,2,3-triazol-2-yl)pyridin-3-yl)-1-(4-methylpyridin-2-yl)-5-(trifluoromethyl)-1H-pyrazole-4-carboxamide]",,,,724,724,490,437,,
"Cc1ccc(-n2ncc(C(=O)Nc3cnc(-n4nccn4)c(Cl)c3)c2C(F)(F)F)cc1 [Cpd 27, N-(5-chloro-6-(2H-1,2,3-triazol-2-yl)pyridin-3-yl)-1-(p-tolyl)-5-(trifluoromethyl)-1H-pyrazole-4-carboxamide]",1380,3890,1200,851,,,,,
"N#Cc1cc(NC(=O)c2cnn(-c3cccc4c3CCN4)c2C(F)(F)F)cnc1-n1nccn1 [Cpd 130, N-(5-cyano-6-(2H-1,2,3-triazol-2-yl)pyridin-3-yl)-1-(indolin-4-yl)-5-(trifluoromethyl)-1H-pyrazole-4-carboxamide]",245,,437,234,,,,,

# Further lines, results first:
"IC50 [1, 7] [nM]","IC50 [2, 8] [nM]","IC50 [3, 7] [nM]",IC50 [4] [nM],"IC50 ([1]; TMD8, 24 h) [nM]","IC50 ([2]; OCI-Ly3, 96 h) [nM]","IC50 ([3]; TMD8, 24 h) [nM]",IC50 [5] [nM],IC50 [6] [nM],SMILES
741,380,263,295,,,,,,"O=C(Nc1cnc(-n2nccn2)c(Cl)c1)c1cnn(-c2ccccc2)c1C(F)(F)F [Cpd 5, N-(5-Chloro-6-(2H-1,2,3-triazol-2-yl)pyridin-3-yl)-1-phenyl-5-(trifluoromethyl)-1H-pyrazole-4-carboxamide]"
,,,912,417,1550,407,,,"O=C(Nc1cnc(-n2nccn2)c(Cl)c1)c1cnn(-c2ccc(F)cn2)c1C(F)(F)F [Cpd 7, N-(5-Chloro-6-(2H-1,2,3-triazol-2-yl)pyridin-3-yl)-1-(5-fluoropyridin-2-yl)-5-(trifluoromethyl)-1H-pyrazole-4-carboxamide]"
1260,741,912,1120,,,,,,"N#Cc1cccc(-n2ncc(C(=O)Nc3cnc(-n4nccn4)c(Cl)c3)c2C(F)(F)F)c1 [Cpd 21, N-(5-chloro-6-(2H-1,2,3-triazol-2-yl)pyridin-3-yl)-1-(3-cyanophenyl)-5-(trifluoromethyl)-1H-pyrazole-4-carboxamide]"
,,,933,1070,479,891,,,"Cc1ccc(-n2ncc(C(=O)Nc3cnc(-n4nccn4)c(Cl)c3)c2C(F)(F)F)nc1 [Cpd 23, N-(5-chloro-6-(2H-1,2,3-triazol-2-yl)pyridin-3-yl)-1-(5-methylpyridin-2-yl)-5-(trifluoromethyl)-1H-pyrazole-4-carboxamide]"
1350,,1100,126,,,,794,741,"N#Cc1cc(NC(=O)c2cnn(-c3nccc(N)c3Cl)c2C(F)(F)F)cnc1-n1nccn1 [Cpd 120, 1-(4-amino-3-chloropyridin-2-yl)-N-(5-cyano-6-(2H-1,2,3-triazol-2-yl)pyridin-3-yl)-5-(trifluoromethyl)-1H-pyrazole-4-carboxamide]"
